Assay results reported in article PMC8214221, “Sequence determinants in the cathelicidin LL-37 that promote inflammation via presentation of RNA to scavenger receptors” (The Journal of Biological Chemistry, 2021).
Residues, ends and D or L forms follow the SMILES beside them.

System: normal human epidermal keratinocytes (NHEKs)
Assay: LDH release cytotoxicity assay in keratinocytes
Format: cell-based
Conditions: minimal concentration giving 50% LDH release by NHEKs
From the text: Since LL-34 was the minimal truncation mutant of LL-37 that retained both antimicrobial and immune modulatory activity, we prepared a series of synthetic peptides with sequential substitutions of alanine at each amino acid position of the LL-34 parent peptide (Table 1). We compared the minimum inhibitory concentration (MIC) for the LL-34 parent peptide and the alanine mutants (LL-34 peptides—L1A and R34A) against methicillin-resistant Staphylococcus aureus strain USA300 (Fig. 1A). LL-34 peptides were incubated at concentrations of 0 to 100 μM with bacteria. The minimal concentration at which no growth was observed was noted after 18 h of incubation. […] Because of these changes in the MIC against S. aureus between the mutants, we investigated the effective toxicity profile of the peptides in normal human epidermal keratinocytes (NHEKs) by lactate dehydrogenase (LDH) release assay (Table 1). […] Most other peptides were cytotoxic at a minimal concentration of 10 μM, whereas LL-34—K15A was toxic at a concentration of 2.5 μM.
LDH cytotoxicity assay was performed according to manufacturer's instructions (Thermo Fisher Scientific). Culture supernatants from keratinocytes were used fresh for LDH assay after experimental treatments.

SMILES | Minimal cytotoxic concentration in NHEK (LD50)
CC[C@H](C)[C@H](NC(=O)[C@H](CCCCN)NC(=O)[C@H](CCC(=O)O)NC(=O)[C@H](CCCCN)NC(=O)[C@H](CO)NC(=O)[C@H](CCCCN)NC(=O)[C@H](CCCNC(=N)N)NC(=O)[C@H](Cc1ccccc1)NC(=O)[C@H](Cc1ccccc1)NC(=O)[C@H](C)NC(=O)CNC(=O)[C@H](CC(C)C)NC(=O)[C@@H](N)CC(C)C)C(=O)NCC(=O)N[C@@H](CCCCN)C(=O)N[C@@H](CCC(=O)O)C(=O)N[C@@H](Cc1ccccc1)C(=O)N[C@@H](CCCCN)C(=O)N[C@@H](CCCNC(=N)N)C(=O)N[C@H](C(=O)N[C@H](C(=O)N[C@@H](CCC(N)=O)C(=O)N[C@@H](CCCNC(=N)N)C(=O)N[C@H](C(=O)N[C@@H](CCCCN)C(=O)N[C@@H](CC(=O)O)C(=O)N[C@@H](Cc1ccccc1)C(=O)N[C@@H](CC(C)C)C(=O)N[C@@H](CCCNC(=N)N)C(=O)N[C@@H](CC(N)=O)C(=O)N[C@@H](CC(C)C)C(=O)N[C@H](C(=O)N1CCC[C@H]1C(=O)N[C@@H](CCCNC(=N)N)C(=O)O)C(C)C)[C@@H](C)CC)C(C)C)[C@@H](C)CC [LL-34—D4A] (H-LLGAFFRKSKEKIGKEFKRIVQRIKDFLRNLVPR-OH; N-terminus and C-terminus assumed) | 5 µM
CC[C@H](C)[C@H](NC(=O)[C@H](CCCCN)NC(=O)[C@H](CCC(=O)O)NC(=O)[C@H](CCCCN)NC(=O)[C@H](CO)NC(=O)[C@H](CCCCN)NC(=O)[C@H](CCCNC(=N)N)NC(=O)[C@H](Cc1ccccc1)NC(=O)[C@H](Cc1ccccc1)NC(=O)[C@H](CC(=O)O)NC(=O)CNC(=O)[C@H](CC(C)C)NC(=O)[C@@H](N)CC(C)C)C(=O)NCC(=O)N[C@@H](CCCCN)C(=O)N[C@@H](CCC(=O)O)C(=O)N[C@@H](Cc1ccccc1)C(=O)N[C@@H](CCCCN)C(=O)N[C@@H](CCCNC(=N)N)C(=O)N[C@H](C(=O)N[C@H](C(=O)N[C@@H](CCC(N)=O)C(=O)N[C@@H](CCCNC(=N)N)C(=O)N[C@H](C(=O)N[C@@H](CCCCN)C(=O)N[C@@H](C)C(=O)N[C@@H](Cc1ccccc1)C(=O)N[C@@H](CC(C)C)C(=O)N[C@@H](CCCNC(=N)N)C(=O)N[C@@H](CC(N)=O)C(=O)N[C@@H](CC(C)C)C(=O)N[C@H](C(=O)N1CCC[C@H]1C(=O)N[C@@H](CCCNC(=N)N)C(=O)O)C(C)C)[C@@H](C)CC)C(C)C)[C@@H](C)CC [LL-34—D26A] (H-LLGDFFRKSKEKIGKEFKRIVQRIKAFLRNLVPR-OH; N-terminus and C-terminus assumed) | 10 µM
CC[C@H](C)[C@H](NC(=O)[C@H](CCCCN)NC(=O)[C@H](C)NC(=O)[C@H](CCCCN)NC(=O)[C@H](CO)NC(=O)[C@H](CCCCN)NC(=O)[C@H](CCCNC(=N)N)NC(=O)[C@H](Cc1ccccc1)NC(=O)[C@H](Cc1ccccc1)NC(=O)[C@H](CC(=O)O)NC(=O)CNC(=O)[C@H](CC(C)C)NC(=O)[C@@H](N)CC(C)C)C(=O)NCC(=O)N[C@@H](CCCCN)C(=O)N[C@@H](CCC(=O)O)C(=O)N[C@@H](Cc1ccccc1)C(=O)N[C@@H](CCCCN)C(=O)N[C@@H](CCCNC(=N)N)C(=O)N[C@H](C(=O)N[C@H](C(=O)N[C@@H](CCC(N)=O)C(=O)N[C@@H](CCCNC(=N)N)C(=O)N[C@H](C(=O)N[C@@H](CCCCN)C(=O)N[C@@H](CC(=O)O)C(=O)N[C@@H](Cc1ccccc1)C(=O)N[C@@H](CC(C)C)C(=O)N[C@@H](CCCNC(=N)N)C(=O)N[C@@H](CC(N)=O)C(=O)N[C@@H](CC(C)C)C(=O)N[C@H](C(=O)N1CCC[C@H]1C(=O)N[C@@H](CCCNC(=N)N)C(=O)O)C(C)C)[C@@H](C)CC)C(C)C)[C@@H](C)CC [LL-34—E11A] (H-LLGDFFRKSKAKIGKEFKRIVQRIKDFLRNLVPR-OH; N-terminus and C-terminus assumed) | 5 µM
